From US20180265867A1, “NUCLEIC ACID MOLECULES WITH ENHANCED ACTIVITY” (priority 2015, published 2018)
{Cy3} = Cy3 fluorescent dye label; d = 2'-deoxy (DNA); r = 2'-OH (RNA)

Tests used:
GAPDH = GAPDH gene knockdown in MG63 cells by RT-PCR; assay type: cell-based, human; conditions: MG63 cells, carrier-free transfection, 50 nM, 24 h
Protocol: At 70% confluency, a day prior to transfection, the cells were seeded at a density of 35 000 cells in a 24-well cell culture plate to achieve 60-80% confluence at the day of transfection. Cell penetrating siRNAs (cpRNAs) of different lengths were transfected at 50 nM concentrations with Magnet Assisted Transfection (MATra-si) reagent for siRNAs (IBA GmbH, Göttingen, Germany) according to the manufacturers' protocols. Briefly, the siRNA was mixed with MATra-si reagent composed of supermagnetic ironoxide nanoparticles and incubated for 20 min. A complex was formed which was added to the cells to be transfected. A strong magnetic force was applied beneath the cells for 15 min. This forced the complex to be drawn into the cells by the magnetic field, and as a result the siRNA was delivered directly into the cytosol. For carrier free transfection experiments, cpRNAs were simply added to cells lines MG63, HOB, HCT116, fibroblasts and keratinocytes at 50 nM concentrations. Cells were also transfected with negative control siRNA (scrambled sequence) and cells left untreated were taken as controls. Each transfection was performed in triplicate. Post transfection, cells were incubated for 24 hours.
For the experiments involving lysosomotropic agent chloroquine (CQ), CQ was first neutralized to pH 7.4 using 1 M NaOH prior to use. MG63 cells were transfected with dT2, dT5, dT8, (dT5)2, as(dT5), and bl(dT5) siRNA in presence or absence of 100 μM CQ or using MATra-si and incubated for 24 h. Similar experiments were performed for other cpRNAs namely, dA5, dT5, dG5, (dT5)2, rA5 and dC5. For the control experiment, cells were either left untreated or transfected with negative control siRNA (scrambled sequence). Each transfection experiment was performed in triplicate.
After performing transfection experiments for 24 h, 48 h and 72 h respectively, total RNA was isolated from cells by adding 500 μl of lysis buffer (Qiagen, Germany), followed by homogenization of cell lysates using QIAshredder (Qiagen, Germany). RNA was extracted from cell lysates by RNeasy Mini Kit (Qiagen, Germany). All RNA samples were treated with DNase using TURBO-DNAfree (Ambion, USA). Agilent 2100 BioAnalyzer (Agilent Technologies, Palo Alto, Calif.) was used to confirm high quality of all RNA samples, which reports an RNA Integrity Number (RIN) that takes into account the entire electrophoretic RNA trace produced in the analysis. A RIN of greater than or equal to seven indicates the RNA is suitable for high stringency applications.
cDNA synthesis was performed in triplicate using total RNA reverse transcribed using High Capacity cDNA reverse transcription kit (Applied Biosystems, USA), with non-template control added to ensure a lack of signal in assay background. Reactions were incubated on a 96-well Applied Biosystems 9800 Fast Thermal Cycler PCR System at 37° C. for 60 min followed by 95° C. for 5 min. The real-time PCR reactions were carried out with 10 μl of 2×TaqMan® Universal PCR Master Mix, no AmpErase® UNG (Applied Biosystems, USA), 9 μl diluted cDNA, and 1 μl of TaqMan gene specific assay mix in a 20 μl final reaction volume. Reference gene beta-actin (ACTB) (Applied Biosystems, USA) was selected as control for normalization of TaqMan data. The assay included a no-template control, a standard curve of five serial dilution points (in steps of 3-fold) of cDNA mixture. Probes specific for IFN-α (Hs01022060_m1), IFN-β (Hs01077958_s1), IFN-γ (Hs00985251_m1), ACTB(Hs01060665_g1) and GAPDH (Hs02758991_g1) were purchased from Applied Biosystems. The amplification was carried out using the 7500 Fast Real-Time PCR System (Applied Biosystems, USA) using a 40-cycle program. The 7500 software automatically calculates raw Ct (cycle threshold) values. Data from samples with a Ct value equal to or below 35 were further analyzed. […]

MG63 cells [1] = assay: Flow cytometry uptake kinetics and ODN2006 blocking in MG63 cells; assay type: cell-based, human; conditions: MG63 cells, 50 nM, 37° C.
Protocol: To determine cpRNA cellular uptake kinetics, FACS experiments were repeated as mentioned above using MG63 cells, where Cy3-cpRNA was treated for different time points. Briefly, Cy3-cpRNA (50 nM) was added to cells, followed by incubation for 0.5 h, 1 h, 1.5 h, 2 h, 3 h and 4 h respectively. The cells were subsequently trypsinised and analyzed by FACS as mentioned above.
To perform […] blocking studies, seeded MG63 cells were incubated with 600 nM 3′-FITC labeled ODN2006 for 1 h, followed by addition of 50 nM cpRNA. Cells were incubated for additional 0.5 h, 1 h, 1.5 h, 2 h, 3 h and 4 h respectively, trypsinised and analyzed by FACS analysis as mentioned above.
To verify if the uptake mechanism of cpRNA was analogous to viral RNA and the RNA mimic polyriboinosinic:polyribocytidylic acid or poly(I:C), blocking studies were performed using the Btype single-stranded DNA sequence ODN2006 which share a common uptake receptor. This synthetic phosphorothioate modified oligo, though initially identified as a TLR9 agonist, blocks cellular uptake of viral RNA and poly(I:C) by preferentially competing with the common RNA uptake receptor. Blocking experiment were performed by pre-incubating the cells with FITC labeled ODN2006 for 1 h, followed by the addition of Cy3-labeled cpRNA. The blocking studies and cellular uptake was monitored using FACS analysis at different time points for up to 4 h. As a control experiment, the uptake kinetics was performed in the absence of FITC labeled ODN2006. […] These experiments verified the involvement of an alternate uptake mechanism and indicated the presence of a ubiquitous RNA capture receptor that required ˜1 h of maturation time before the endocytosis process could initiate.

[2] = test system: MG63, HOB, HCT116, HEK293 and MC3T3 cells; assay: Flow cytometry cellular uptake of Cy3-cpRNA in different cells; assay type: cell-based, human; mouse; conditions: 50 nM, 24 h at 37° C., carrier-free
Protocol: To determine the amount of cellular uptake of cpRNA by flow cytometry, Cy3 labeled cpRNA (Table 3) was used for transfection experiments using different types of cells (MG63, HOB, HCT116, HEK293 and MC3T3). Cells were seeded at a density of 1×10^5 cells per well and cultured for 24 hours. Thereafter, cells were transfected with 50 nM Cy3-cpRNA, with control wells left untreated. Post-transfection, cells were incubated for further 24 h at 37° C., trypsinised and washed with PBS containing 2 mM EDTA and 0.5% human serum albumin. The cells were then suspended in PBS and subjected to fluorescence analysis on a FACSCanto II (BD Biosciences) BioVis platform, scilife laboratory. The images were analyzed using FlowJo software (version 7.6; TreeStar, Ashland, Oreg.).

MG63 and HOB cells = assay: Cell proliferation / toxicity by MTS assay; assay type: cell-based, human; conditions: 50 and 100 nM, 24 h post transfection
Protocol: Cell proliferation was assessed by MTS (3-(4,5-dimethylthiazol-2-yl)-5-(3-carboxymethoxyphenyl)-2-(4-sulfophenyl)-2H-tetrazolium, inner salt) reagent assay: MG63 cells were seeded at a density of 35 000 cells in 24-well culture plates, and cultured for 24 hours as mentioned above. Cells were transfected with 50 nM or 100 nM concentrations of cpRNA and negative control siRNAs with or without MATra-si, while control wells were left untreated. Each transfection experiment was performed in triplicate. Post-transfection, cells were incubated for 24 hours at 37° C. The viable cells were evaluated by MTS assay, using CellTiter 96®AQueousOne Solution Cell Proliferation Assay (Promega, USA) according to the manufacturer's protocol. The enzymatic reduction in MTS to formazan was quantified by an ELISA plate reader (Thermo Scientific) at 490 nm.
Thus, the role of siRNA topography on immune activation and cellular toxicity was investigated because increased RNA length has been reported to cause toxicity with increased interferon (IFN)-β expression. toxicity studies were performed using the MTS assay with two concentrations of GAPDH siRNA (50 and 100 nM) with different overhang lengths (dT2, dT5, and dT8) in MG63 and HOB cells and compared it with the scrambled siRNA sequence (FIG. 5).

[3] = Thermal denaturation (Tm) of siRNA duplexes; assay type: physicochemical
Protocol: Thermal denaturation studies of siRNA was carried out in phosphate buffer, pH 7.0, containing 140 mM KCl. UV absorbance was monitored at 260 nm in the temperature range from 40 to 95° C. using a Lambda 35 UV-Vis spectrophotometer equipped with a Peltier temperature programmer with a heating rate of 0.5° C./min. Samples (1 μM RNA) were denatured at 90° C. for 3 min followed by slow cooling to 27° C. prior to the measurements. Tm values were obtained from the maxima of the first derivatives of the melting curves. All Tm values given are the averages of three independent sets of experiments (±0.3° C. error range).

MG63 cells [4] = conditions: no own experiment described; cited from earlier work

Substance | GAPDH gene knockdown (GAPDH) [%] | time after which cellular uptake was initiated (MG63 cells [1]) [h] | time in which uptake finished after initiation (MG63 cells [1]) [h] | cellular uptake by flow cytometry ([2]; listed as Cy3-labeled cpRNA) | cellular uptake by flow cytometry ([2]; listed as Cy3 labeled cpRNA) | cytotoxicity (MTS assay) (MG63 and HOB cells) | Tm ([3]; 7.5 mM phosphate buffer pH 7.0 containing 140 mM KCl, 1 μM strands, 40-95° C.) [°C] | Δ Tm ([3]; Tm relative to canonical siRNA (dT2)) [°C] | drop in Tm ([3]; as compared to canonical siRNA) [°C] | uptake kinetics (MG63 cells [4]) [min]
Cy3 cpRNA: GAPDH cpRNA with Cy3 at 5′-end of sense strand (SEQ ID NO: 12, dT5), antisense SEQ ID NO: 2 (sense CCGAGCCACAUCGCUCAGATTTTT; antisense UCUGAGCGAUGUGGCUCGGTT; sense: sugars from the 5' end r19 d5, 5' {Cy3}, backbone not given here; antisense: sugars from the 5' end r19 d2, backbone not given here) | 80 | 1 | ≤ 2 | near quantitative cellular uptake | quantitatively taken up by all the cells |  |  |  |  | 
dT8: GAPDH siRNA, sense SEQ ID NO: 4 with dT8 3′-overhang, antisense SEQ ID NO: 2 with dT2 (sense CCGAGCCACAUCGCUCAGATTTTTTTT; antisense UCUGAGCGAUGUGGCUCGGTT; sense: sugars from the 5' end r19 d8, backbone not given here; antisense: sugars from the 5' end r19 d2, backbone not given here) | 50 |  |  |  |  | do not impose toxicity | 79.8 | −1.4 | 1.5 | 
polyriboinosinic:polyribocytidylic acid [poly(I:C)] |  |  |  |  |  |  |  |  |  | ≤ 5
